Patent US20140128357A1, “METHODS OF PRODUCING AND USING BRASSINOSTEROIDS TO PROMOTE GROWTH, REPAIR AND MAINTENANCE OF SKELETAL MUSCLE AND SKIN” (Rutgers University, priority 2010, published 2014)
Where two headings read alike, the source gives them in different places.

How the values were obtained:
[1] = tested on: L6 rat myotubes; assay: Protein synthesis, [3H]-phenylalanine incorporation in myotubes; type: cell-based; conditions: for increase in protein synthesis above control levels: 4 h (FIG. 2A); for Protein synthesis (% increase over control): 4 h; for maximum increases in protein synthesis: dose response 0.3-30 μM (FIG. 8A)
Protocol: In some aspects, cell culture experiments were carried out. Rat L6 skeletal muscle cell line CRL-1458 was obtained from ATCC (Manassas, Va.). Myoblasts were routinely maintained in Dulbecco's modified Eagle's medium (DMEM) containing 10% FBS and 0.1% penicillin-streptomycin at 37° C. and 5% CO2. Cells were subcultured into 24-well plates for protein synthesis, degradation, and cell viability studies and into 6-well plates for Western blot analyses (Greiner Bio One, Monroe, N.C.). Once cells reached 90% confluence, differentiation was induced by lowering the serum concentration to 2%, and medium was changed every 2 days. After 7-9 days of culture the myoblasts had fused into multinucleated myotubes (Mandel et al., Nature 251:618-620, 1974). NIH 3T3 murine embryonic fibroblast cell line (ATCC #CCL-92) was maintained in DMEM and 10% FBS at 37° C. in 5% CO2, and passaged every 3-4 days.
In various aspects, protein synthesis is measured to determine the effect of brassinosteroid on a particular protein. All known methods for measuring protein synthesis are included in the methods of the disclosure. In brassinosteroid dose response studies, fully differentiated myotubes were washed with serum-free DMEM and treated in triplicate with vehicle (0.1% ethanol), increasing concentrations of HB, or 6.5 nM of insulin-like growth factor-1 (IGF-1) as a positive control. Compounds were added to serum-free medium containing 0.5 μCi/mL [^3H]-phenylalanine and incubated for 4 h. For the HB time course study, fully differentiated myotubes were treated with 3 μM HB for 1-24 h using the same culture conditions. The incubation was stopped by placing cells on ice, discarding the medium, and washing the cells extensively with ice-cold PBS to remove the non-incorporated radiolabel. Proteins were precipitated with 5% trichloroacetic acid and dissolved in 0.5N NaOH (Montgomery et al., Methods Cell. Sci. 24:123-129, 2002). Specific radioactivity of protein-bound phenylalanine was quantified using liquid scintillation counter LS 6500 (Beckman Coulter, Fullerton, Calif.) and normalized to mg of total protein determined by BCA protein assay (Pierce Biotechnology, Rockford, Ill.).
The bioactivity of HB and its analogs was evaluated by measuring increases in protein synthesis in the L6 rat skeletal muscle cells in vitro. Cells were incubated for 4 h with [^3H]-phenylalanine and treated in triplicate with vehicle (0.1% ethanol) or test compound (10 μM), and protein synthesis was measured as incorporation of [^3H]-phenylalanine into protein normalized by total protein (Table 3). Under these conditions, both HB and (22S,23S)-homocastasterone increased protein synthesis by 37.2±5.9% (p<0.001) and 41.0±2.7% (p<0.001), respectively. This protein synthesis increase compared favorably to the biological activity of IGF-1 at 6.5 nM (42.5±4.5%, p<0.001) that served as a positive control in this assay. Removal of the 2α-hydroxyl group and fluorination at C-3 in the A ring (compound IDs 3-4 in Table 3) led to about a 50% decrease in bioactivity (24.6±5.3%, p<0.01 and 22.5±2.7%, p<0.01, respectively) compared to the positive control. However, there was still an increase in protein synthesis. […] Modifications in the side chain (compound IDs 7-9 in Table 3) abolished the activity.

[2] = tested on: NIH 3T3 murine fibroblast cell line; assay: Cytotoxicity, MTT assay in 3T3 fibroblasts; type: cell-based, mouse
Protocol: FIG. 9. Cell survival curves as measured by MTT assay for brassinosteroids 1-9 against the murine fibroblast cell line NIH-3T3. Cells were incubated with various concentrations of brassinosteroids (0.3-30 μM) for 24 h at 37° C. The mean absorbance of the control cells represented 100% cell proliferation, and the mean absorbance of treated cells was related to control values to determine sensitivity. Error bars represent standard error (n=6) from mean cell proliferation as determined by repeated experiments.
(§1) In various aspects, cell viability is measured and the effects of doses of compound and test reagents are tested in cell lines. In some aspects, cell viability was measured by the MTT (3-(4,5-Dimethylthiazol-2-yl)-2,5-diphenyltetrazolium bromide) assay in triplicate (Mosmann et al., J. Immunol. Methods 65:55-63, 1983) and quantified spectrophotometrically at 550 nm using a microplate reader (Molecular Devices, Sunnyvale, Calif.).
3T3 fibroblasts were seeded in a 96-well flat bottom plate at a density of 1×10^4 cells/well. Cell viability was measured by an MTT (3-(4,5-Dimethylthiazol-2-yl)-2,5-diphenyltetrazolium bromide) assay in triplicate (0.3-30 μM of test substance for […]) essentially as described by Mosmann (J. Immunol. Methods 65, 55-63, 1983) and quantified spectrophotometrically at 550 nm using a microplate reader (Molecular Devices, Sunnyvale, Calif.). […] For cell proliferation studies, cells were treated in triplicate with 0.1-10 μM of test substance for 24 h and assayed using a BrdU (5-bromo-2′-deoxyuridine) kit from Amersham (Uppsala, Sweden).

[3] = tested on: L6 rat myotubes; assay: Protein degradation, release of acid-soluble [3H]-phenylalanine; type: cell-based; conditions: for decrease in protein degradation vs control levels: 1 μM, 4 h
[4] = tested on: AKT (Ser473) phosphorylation in L6 myotubes; assay: AKT (Ser473) phosphorylation, Western blot; type: cell-based, rat; conditions: for activation of AKT: after 1 h
Protocol: In some aspects, Western blot analyses were carried out. Fully differentiated L6 myotubes were cultured as described above, and whole cell extracts were prepared in ice-cold RIPA buffer supplemented with 10 mM sodium fluoride, 2 mM sodium orthovanadate, 1 mM PMSF, and protease inhibitor cocktail (Sigma) and centrifuged at 12,000 g for 20 min at 4° C. Equal amounts of protein (50 μg) from the supernatants were separated on 10% SDS polyacrylamide gels and blotted onto the nitrocellulose membrane. Western blot detection was carried out with monoclonal phospho-AKT (Ser473) antibodies according to the manufacturer's instructions (Cell Signaling Technology, Danvers, Mass.). After being washed, the blots were incubated with an anti-rabbit peroxidase-labeled secondary antibody and visualized using ECL Western Blotting Detection Reagent (GE Healthcare, Piscataway, N.J.). After being stripped, the same blots were probed with total AKT antibodies to serve as loading controls.

[5] = tested on: fully differentiated L6 rat skeletal myotubes; assay: MTT cell viability in L6 myotubes; type: cell-based; conditions: up to 25 μM
Protocol: as §1

## CC[C@@H](C(C)C)[C@H](O)[C@@H](O)[C@@H](C)[C@H]1CC[C@H]2[C@@H]3COC(=O)[C@H]4C[C@H](O)[C@H](O)C[C@]4(C)[C@H]3CC[C@]12C [Compound 1, (22S,23S,24S)-2α,3α,22,23-tetrahydroxy-24 ethyl-β-homo-7-oxo-5α-cholestane-6-one]
[1]; 1 μM
  increase in protein synthesis above control levels: 12.4±2.3%
[1]; 3 μM, 1-24 h study
  time at which stimulated protein synthesis peaked: 3 h
[1]; 10 μM
  Protein synthesis (% increase over control): 37.2 ± 5.9 %
  increase in protein synthesis above control levels: 34.9±3.1%
[1]; 10 μM, listed as HB
  Protein synthesis (% increase over control): 37.2±5.9%
[1]; 20 μM
  increase in protein synthesis above control levels: 36.9±2.9%
[1]
  maximum increases in protein synthesis: 36.9±2.9%
[1]; read-out: 50% effective dose for protein synthesis
  EC50: 3 µM
[2]; 3T3 mouse fibroblasts, MTT, 0.3-30 μM, read-out: Cell cytotoxicity, IC50
  IC50: > 30 µM
[2]; tested up to 30 μM
  cytotoxicity in vitro: no cytotoxicity
[3]
  decrease in protein degradation vs control levels: 8.2±0.6%
[3]; 3 μM HB, 1-4 h study
  time at which suppression of protein degradation reached a plateau: 3 h
[4]
  time to AKT phosphorylation: 30 min
  activation of AKT: significant activation of AKT
[4]; 3 μM, 1 h
  stimulation of Ser473 phosphorylation of AKT: up to 3 fold
[5]
  toxicity to L6 myotubes (MTT assay and cytological observations): no toxicity

## CC[C@@H](C(C)C)[C@H](O)[C@@H](O)[C@@H](C)[C@H]1CC[C@H]2[C@@H]3CC(=O)[C@H]4C[C@H](O)[C@H](O)C[C@]4(C)[C@H]3CC[C@]12C [Compound 2, (22S,23S,24S)-2α,3α, 22,23-tetrahydroxy-24-ethyl-5α-cholestan-6-one]
[1]; 10 μM
  Protein synthesis (% increase over control): 41.0 ± 2.7 %
[1]; 10 μM, listed as (22S,23S)-homocastasterone
  Protein synthesis (% increase over control): 41.0±2.7%
[1]
  maximum increases in protein synthesis: 40.7±4.9%
[3]
  decrease in protein degradation vs control levels: 8.7±1.7%
[3]; 4 h dose response
  concentration at which inhibition of protein degradation reached a plateau: 10 µM
[4]
  activation of AKT: significant activation of AKT

## CC[C@@H](C(C)C)[C@H](O)[C@@H](O)[C@@H](C)[C@H]1CC[C@H]2[C@@H]3CC(=O)N[C@H]4C[C@H](O)[C@H](O)C[C@]4(C)[C@H]3CC[C@]12C [Compound 5, (22S,23S,24S)-2α,3α-22,23-tetrahydroxy-24-ethyl-B-homo-6-aza-5α-cholestan-7-one]
[1]; 10 μM
  effect of structural modification on activation of protein synthesis, in words: complete loss of activation of protein synthesis
  Protein synthesis (% increase over control): 3.3 ± 12.4%
[2]
  IC50: 12.5 µM
[2]; 3T3/NIH murine fibroblasts, MTT, 24 h (FIG. 9), read-out: half-maximal inhibitory concentration (IC50), cell proliferation
  IC50: 12.5 µM
